Structures are written as SMILES.

The subject of one data set is TNF-α and IL-10 amounts in plasma of LPS-injected BALB/c mice. Put plainly: Endotoxin-induced Cytokine Production. Type of data set: in vivo. As to conditions: 320 mg/kg, administered 30 minutes before LPS 0.1 mg/kg i.v.; plasma one hour after LPS; ELISA. The method, then: Endotoxin-induced Cytokine Production
BALB/c mice (male, 7 weeks old) were injected i.v. with 0.1 mg/kg of lipopolysaccharides (LPS) in a total volume of 0.2 ml saline. Heparinized blood samples were taken one hour after LPS injection and plasma was collected by centrifugation. TNF-α (inflammatory cytokine) and IL-10 (anti-inflammatory cytokine) amounts in plasma were assayed by ELISA. Test compounds were administered 30 minutes before LPS injection.
For orientation: An ELISA detects its analyte on a solid surface through an enzyme-linked reagent.
As to `NC(=O)c1cn(C(CO)CCc2ccccc2)cn1` (stereo not drawn) [Example 1, 1-(1-Hydroxy-4-phenyl-2-butyl)imidazole-4-carboxamide], the “IL-10” value stood at 137 ± 14 pg/mL and the “TNF-α” value was determined as 3.1 ± 0.5 ng/mL.

System in another data set: not given
Assay: not given
Details: not given
Compound `CCOC(=O)c1cccc(CCC(CO)n2cnc(C(N)=O)c2)c1` (stereo not drawn) yielded a melting point of 92 to 95 °C. Consider `COC(=O)Cc1cccc(CCC(CO)n2cnc(C(N)=O)c2)c1` (stereo not drawn), for which the melting point lay within 138.5 to 141 °C. For the compound `N#Cc1cn(C(CO)CCc2ccccc2)cn1` (stereo not drawn), the melting point was in the range of 111 to 115 °C. For the compound `Cc1ccccc1CC[C@H]([C@H](C)O)n1cnc(C(N)=O)c1`, the melting point is 60 to 62 °C. The same measure, in the same setting: next, `C[C@H](O)[C@@H](CCc1cccc(Cl)c1Cl)n1cnc(C(N)=O)c1`: 70 to 75 °C; `NC(=O)c1cn(C(CO)c2ccccc2)cn1` (stereo not drawn): 147 to 149 °C; `CCCCCCC(CO)n1cnc(C(N)=O)c1` (stereo not drawn): 97.5 to 100.5 °C. `CCCC(CO)n1cnc(C(N)=O)c1` (stereo not drawn) registered a melting point of 160 °C. The same measure, in the same setting: the value for `NC(=O)c1cn(C(CO)CCc2cccc(C(F)(F)F)c2)cn1` (stereo not drawn) was 103 to 106 °C; that for `NC(=O)c1cn(C(CO)COc2ccccc2)cn1` (stereo not drawn) was 147.5 to 149.5 °C; that for `Nc1nc(-c2cn([C@H](CO)CCc3ccccc3)cn2)n[nH]1` was 80 °C (dec.). Same read-out and setting: the value for `Cc1ccc(CCC(CO)n2cnc(C(N)=O)c2)cc1` (stereo not drawn) was 138 to 141 °C; that for `NC(=O)c1cn(C(CO)CCc2ccccc2)cn1` (stereo not drawn) [Example 1, 1-(1-Hydroxy-4-phenyl-2-butyl)imidazole-4-carboxamide] was 127 to 129.5 °C.

What is called melting point is the temperature, or range, at which the solid turns liquid.

Values taken from patent US6359145B1, “Imidazole compounds” (Fujisawa Pharmaceutical Co., Ltd., priority 1998, dated 2002).
